Results: US4604239A, “Antibiotics” (Eli Lilly and Company, priority 1985, dated 1986)
≈ marks a conversion by molar mass, not a printed value. Where two headings read alike, the source gives them in different places.

Assays:
[1] = tested on: Streptococcus sp. Group B; experiment: agar-dilution MIC; type: cell-based; conditions: end point after 24 hours, Table 18
Description: (§1) The in vitro activity of antibiotic A41030 factors A and B against a number of representative aerobic, gram-positive bacteria, including Streptococcus sp. Group D, has been determined using a standard agar-dilution assay.

Neisseria sp. = experiment: agar-dilution MIC; type: cell-based; conditions: Table 10
Method: The test results are recorded in Table 10, which follows.

[2] = tested on: Bacteroides melaninogenicus; experiment: agar-dilution MIC; type: cell-based; conditions: Bacteroides melaninogenicus 2736; Table 14
rumen fluid = experiment: in vitro rumen fluid fermentation, volatile fatty acids; design: species or system steer; conditions: 16 hours at 38° C.
Description: Rumen fluid was obtained from a steer having a surgically-installed fistula opening into the rumen. The steer was maintained on a high-grain ration, the composition of which follows: A sample of rumen fluid was strained through 4 layers of cheesecloth and the filtrate was collected in a vacuum bottle. The particulate matter retained by the cheesecloth was resuspended in enough physiological buffer to return it to the original volume of the rumen fluid, and the suspension was again strained through cheesecloth. The buffer used is described below: The two filtrates were pooled in a separatory funnel and allowed to stand till particulate matter rose to the top. The clear layer was then separated and diluted 1:1 with the same buffer, and adjusted to pH 7.0. Ten ml. of the diluted rumen fluid thus prepared was placed in a 25 ml. flask with 90 mg. of finely-powdered high-grain ration, the composition of which is described above. The compound to be tested was weighed out and dissolved in the appropriate solvent, supra. The solution was placed on the finely-powdered ration in each test flask and dried. Two sets of four untreated control flasks each were also prepared. One set of four untreated control flasks was incubated for 16 hours at 38° C. with the test flasks. […] Fermentation in the incubated test and control flasks was stopped at the end of 16 hours by addition of 2 ml. of 25 percent metaphosphoric acid to each flask. All of the samples were allowed to settle, and the supernatant was analyzed by gas chromatographic methods for acetate, propionate, and butyrate. The analysis for each volatile fatty acid found in the zero-time controls was substracted from the analyses of the untreated controls and of the test flasks. The resulting values reflect the amount of each VFA produced during the 16-hour fermentation period. The data below are reported as the ratio of VFA's produced in treated flasks to VFA's produced in untreated control flasks.

electrometric titration = type: physicochemical; conditions: electrometric titration in 66% dimethylformamide in water
Description: Antibiotic A41030 factor A is a white, crystalline solid.

Staphylococcus aureus = experiment: agar-dilution MIC; type: cell-based
[3] = tested on: Bacteroides thetaiotaomicron; type: cell-based
Description: (§2) The agar-dilution procedure described by the International Collaborative study (ICS) group was used to determine the minimum inhibitory concentrations (MIC's).

Shigella flexneri = Shigella flexneri SH-4; Table 11
Description: as §2

Bacteroides corrodens = experiment: agar-dilution MIC; type: cell-based; conditions: Bacteroides corrodens 1874; Table 14
[4] = tested on: Streptococcus sp. (Group D); experiment: agar-dilution MIC; type: cell-based
Description: as §2

Staph. aureus = experiment: experimental bacterial infection in mice; type: in vivo; conditions: two doses subcutaneously
Method: (§3) All of the A41030 factors tested have shown in vivo antimicrobial activity against experimental bacterial infections. When two doses of test compound were administered subcutaneously to mice in illustrative infections, the activity observed is measured as an ED50 value [effective dose in mg./kg. to protect fifty percent of the test animals: See Warren Wick, et al., J. Bacteriol. 81, 233-235 (1961)].

[5] = tested on: Haemophilus parainfluenzae; experiment: agar-dilution MIC; type: cell-based; conditions: end point after 24 hours, Table 18
Bacteroides vulgatis = experiment: agar-dilution MIC; type: cell-based; conditions: Bacteroides vulgatis 1211; Table 14
S. pyogenes = experiment: experimental bacterial infection in mice; type: in vivo; conditions: for ED50: S. pyogenes infection in mice, two doses subcutaneously; for in vivo oral activity: against S. pyogenes in mice
Viridans streptococcus = experiment: agar-dilution MIC; type: cell-based; conditions: Table 11
Streptococcus faecalis = experiment: agar-dilution MIC; type: cell-based; conditions: Streptococcus faecalis X66; Table 7
[6] = tested on: Streptococcus sp. ATCC 10389; experiment: agar-dilution MIC; type: cell-based; conditions: end point after 24 hours, Table 18
Description: as §1

S. pneumoniae = experiment: experimental bacterial infection in mice; type: in vivo; conditions: two doses subcutaneously
Method: as §3

Enterobacter aerogenes = experiment: agar-dilution MIC; type: cell-based; conditions: Enterobacter aerogenes C32; Table 17
Description: The results after reading the which follows.

[7] = Staphylococcus aureus 3055, end point after 24 hours, Table 18
[8] = Staphylococcus aureus V138, end point after 24 hours, Table 18
[9] = B. thetaiotaomicron 1438, 24-hour, Table 12
[10] = Bacteroides thetaiotaomicron 1438, Table 14
[11] = Streptococcus sp. Group D 2041, end point after 24 hours, Table 18
[12] = Streptococcus sp. Group D 2058, end point after 24 hours, Table 18
[13] = Streptococcus sp. Group D 8043, end point after 24 hours, Table 18
[14] = Streptococcus sp. Group D 9901, end point after 24 hours, Table 18
[15] = Streptococcus sp. Group D 9960, Table 17
[16] = Streptococcus sp. Group D 9960, end point after 24 hours, Table 18
[17] = Streptococcus sp. Group D 12253F, end point after 24 hours, Table 18
[18] = Streptococcus sp. Group D Mx161, end point after 24 hours, Table 18
[19] = Streptococcus sp. Group D X66, Table 17
[20] = Streptococcus sp. Group D X66, end point after 24 hours, Table 18
[21] = Haemophilus parainfluenzae 7901
[22] = Haemophilus parainfluenzae 9796

Molecule: NC1C(=O)NC2Cc3ccc(c(Cl)c3)Oc3cc4cc(c3O)Oc3ccc(cc3Cl)C(O)C3NC(=O)C(NC(=O)C4NC(=O)C(NC2=O)c2cc(O)cc(c2)Oc2cc1ccc2O)c1cc(Cl)c(O)c(c1)-c1c(O)cc(O)cc1C(C(=O)O)NC3=O (stereo not shown) [A41030 factor A]
- MIC ([1]; Streptococcus sp. Group B 5): 1 µg/mL (≈ 0.811 µM)
- MIC ([1]; Streptococcus sp. Group B 14): 0.06 µg/mL (≈ 0.0486 µM)
- MIC (Neisseria sp.; Neisseria sp. L. Nance): 4.0 µg/mL (≈ 3.24 µM)
- MIC (Neisseria sp.; Neisseria sp. Mitchell): 4.0 µg/mL (≈ 3.24 µM)
- MIC (Neisseria sp.; Neisseria sp. Sanders): 1.0 µg/mL (≈ 0.811 µM)
- MIC (Neisseria sp.; Neisseria sp. Schultz): 8.0 µg/mL (≈ 6.49 µM)
- MIC (Neisseria sp.; Neisseria sp. Woods): 4.0 µg/mL (≈ 3.24 µM)
- MIC [2]: 4 µg/mL (≈ 3.24 µM)
- Acetate, ratio of VFA's produced in treated flasks to untreated control flasks (rumen fluid; 1 mcg./ml.): 1.01
- Butyrate, ratio of VFA's produced in treated flasks to untreated control flasks (rumen fluid; 1 mcg./ml.): 0.66
- Propionate, ratio of VFA's produced in treated flasks to untreated control flasks (rumen fluid; 1 mcg./ml.): 1.31
- Acetate, ratio of VFA's produced in treated flasks to untreated control flasks (rumen fluid; 2 mcg./ml.): 1.03
- Butyrate, ratio of VFA's produced in treated flasks to untreated control flasks (rumen fluid; 2 mcg./ml.): 0.94
- Propionate, ratio of VFA's produced in treated flasks to untreated control flasks (rumen fluid; 2 mcg./ml.): 1.33
- possibly additional pKa's (electrometric titration): > 10.5
- MIC (Staphylococcus aureus; Staphylococcus aureus 3055, Table 11): 0.13 µg/mL (≈ 0.105 µM)
- MIC (Staphylococcus aureus; [7]): 0.06 µg/mL (≈ 0.0486 µM)
- MIC (Staphylococcus aureus; Staphylococcus aureus 3074, Penicillin-resistant, Table 11): ≤ 0.06 µg/mL
- MIC (Staphylococcus aureus; Staphylococcus aureus 3131 (**Penicillin, methicillin, and erythromycin), Table 11): ≤ 0.06 µg/mL
- MIC (Staphylococcus aureus; Staphylococcus aureus 3134 (**Penicillin, methicillin, and erythromycin), Table 11): ≤ 0.06 µg/mL
- MIC (Staphylococcus aureus; Staphylococcus aureus H43, Penicillin-resistant, Table 11): ≤ 0.06 µg/mL
- MIC (Staphylococcus aureus; Staphylococcus aureus H290, Table 11): ≤ 0.06 µg/mL
- MIC (Staphylococcus aureus; Staphylococcus aureus S13E, Table 17): 0.25 µg/mL (≈ 0.203 µM)
- MIC (Staphylococcus aureus; Staphylococcus aureus V57, Penicillin-resistant, Table 11): ≤ 0.06 µg/mL
- MIC (Staphylococcus aureus; [8]): 0.06 µg/mL (≈ 0.0486 µM)
- MIC [3, 9]: 64 µg/mL (≈ 51.9 µM)
- MIC [3, 10]: 64 µg/mL (≈ 51.9 µM)
- MIC (Shigella flexneri): 64 µg/mL (≈ 51.9 µM)
- MIC (Bacteroides corrodens): 64 µg/mL (≈ 51.9 µM)
- MIC ([4]; Streptococcus sp. (Group D) 238, Table 11): 0.25 µg/mL (≈ 0.203 µM)
- MIC ([4]; Streptococcus sp. (Group D) 282, Table 11): 0.25 µg/mL (≈ 0.203 µM)
- MIC ([4]; Streptococcus sp. (Group D) 9901, Table 11): 0.25 µg/mL (≈ 0.203 µM)
- MIC ([4]; Streptococcus sp. (Group D) 12253F, Table 11): 0.25 µg/mL (≈ 0.203 µM)
- MIC ([4]; Streptococcus sp. (Group D) Guze, Table 11): 0.25 µg/mL (≈ 0.203 µM)
- MIC [4, 11]: 0.5 µg/mL (≈ 0.405 µM)
- MIC [4, 12]: 0.5 µg/mL (≈ 0.405 µM)
- MIC [4, 13]: 0.25 µg/mL (≈ 0.203 µM)
- MIC [4, 14]: 1 µg/mL (≈ 0.811 µM)
- MIC [4, 15]: 2 µg/mL (≈ 1.62 µM)
- MIC [4, 16]: 0.5 µg/mL (≈ 0.405 µM)
- MIC [4, 17]: 0.25 µg/mL (≈ 0.203 µM)
- MIC [4, 18]: 0.25 µg/mL (≈ 0.203 µM)
- MIC [4, 19]: 1 µg/mL (≈ 0.811 µM)
- MIC [4, 20]: 0.25 µg/mL (≈ 0.203 µM)
- ED50 (Staph. aureus): 1.4 mg/kg
- MIC [5, 21]: 16 µg/mL (≈ 13 µM)
- MIC [5, 22]: 16 µg/mL (≈ 13 µM)
- MIC (Bacteroides vulgatis): 32 µg/mL (≈ 25.9 µM)
- ED50 (S. pyogenes): 2.8 mg/kg
- in vivo oral activity (S. pyogenes): > 300 mg./kg. X 2
- MIC (Viridans streptococcus; Viridans streptococcus SM-1134): 0.5 µg/mL (≈ 0.405 µM)
- MIC (Viridans streptococcus; Viridans streptococcus SSI-910): 0.25 µg/mL (≈ 0.203 µM)
- MIC (Viridans streptococcus; Viridans streptococcus SSII-895): 0.25 µg/mL (≈ 0.203 µM)
- MIC (Streptococcus faecalis): < 0.5 µg/mL

Molecule: N[C@H]1C(=O)N[C@@H]2Cc3ccc(c(Cl)c3)Oc3cc4cc(c3O)Oc3ccc(cc3Cl)[C@@H](O)[C@@H]3NC(=O)C(NC(=O)[C@@H]4NC(=O)[C@@H](NC2=O)c2cc(O)cc(c2)Oc2cc1ccc2O)c1ccc(O)c(c1)-c1c(O)cc(O)cc1[C@@H](C(=O)O)NC3=O [A41030 factor B]
- MIC ([1]; Streptococcus sp. Group B 5): 1 µg/mL (≈ 0.834 µM)
- MIC [6]: 0.25 µg/mL (≈ 0.209 µM)
- MIC [2]: 4 µg/mL (≈ 3.34 µM)
- possibly additional pKa's (electrometric titration): > 10
- MIC (Staphylococcus aureus; [7]): 0.06 µg/mL (≈ 0.05 µM)
- MIC (Staphylococcus aureus; [8]): 0.06 µg/mL (≈ 0.05 µM)
- MIC (Staphylococcus aureus; in µg/mL): 0.25
- MIC [3, 9]: 32 µg/mL (≈ 26.7 µM)
- MIC [3, 10]: 32 µg/mL (≈ 26.7 µM)
- MIC (Bacteroides corrodens): 64 µg/mL (≈ 53.4 µM)
- MIC [4, 11]: 0.5 µg/mL (≈ 0.417 µM)
- MIC [4, 12]: 0.5 µg/mL (≈ 0.417 µM)
- MIC [4, 13]: 0.25 µg/mL (≈ 0.209 µM)
- MIC [4, 14]: 1 µg/mL (≈ 0.834 µM)
- MIC [4, 15]: 1 µg/mL (≈ 0.834 µM)
- MIC [4, 16]: 0.5 µg/mL (≈ 0.417 µM)
- MIC [4, 17]: 0.5 µg/mL (≈ 0.417 µM)
- MIC [4, 18]: 0.25 µg/mL (≈ 0.209 µM)
- MIC [4, 19]: 1 µg/mL (≈ 0.834 µM)
- MIC [4, 20]: 0.25 µg/mL (≈ 0.209 µM)
- ED50 (S. pneumoniae): 1.4 mg/kg
- ED50 (Staph. aureus): < 0.43 mg/kg
- MIC [5, 21]: 16 µg/mL (≈ 13.3 µM)
- MIC [5, 22]: 16 µg/mL (≈ 13.3 µM)
- MIC (Bacteroides vulgatis): 32 µg/mL (≈ 26.7 µM)
- ED50 (S. pyogenes): 1.4 mg/kg
- in vivo oral activity (S. pyogenes): > 300 mg./kg. X 2
- MIC (Enterobacter aerogenes): 64 µg/mL (≈ 53.4 µM)

Molecule: A41030 factor C
- MIC [2]: 4 µg/mL
- possibly additional pKa's (electrometric titration): > 10
- MIC (Staphylococcus aureus; in µg/mL): 1
- MIC [3, 9]: 32 µg/mL
- MIC [3, 10]: 64 µg/mL
- MIC (Bacteroides corrodens): 32 µg/mL
- MIC [4, 15]: 4 µg/mL
- MIC [4, 19]: 2 µg/mL
- ED50 (S. pneumoniae): 6.7 mg/kg
- ED50 (Staph. aureus): < 0.43 mg/kg
- MIC (Bacteroides vulgatis): 32 µg/mL
- in vivo oral activity (S. pyogenes): > 300 mg./kg. X 2
